Measurements published in ChEMBL document CHEMBL1146461, “Vibsane diterpenoids from the leaves and flowers of Viburnum odoratissimum” (2004).

Legend:
NUGC-3 = assay: Cytotoxicity against human NUGC3 assessed as survival at 20 ug/ml by MTS method; format: functional; settings: read-out: Survival
[1] = Cytotoxicity against human HONE1 assessed as survival at 20 ug/ml by MTS method; format: functional; settings: read-out: Survival

SMILES | viability at 20 µg/mL (NUGC-3) | viability at 20 µg/mL [1]
C=C(C)C(O)CC[C@@]1(C)CC=C(CO)C(=O)[C@H](CC(C)=O)[C@@H]1/C=C/OC(=O)C=C(C)C (stereo not given in full) | 58% | 
C=C(C)C(CC[C@@]1(C)CC=C(COC(C)=O)C(=O)[C@@H](CC(C)=O)[C@@H]1/C=C/OC(=O)C=C(C)C)OC(C)=O (stereo not given in full) | 0% | 0%
CC(=O)C[C@@H]1C(=O)C(COC(C)=O)=CC[C@](C)(C/C=C/C(C)(C)OC(C)=O)[C@H]1/C=C/OC(=O)C=C(C)C | 0% | 0%
